Experiments:
washed platelets [1] = test: Flow cytometry: fibrinogen binding and P-selectin exposure; assay type: cell-based, human
Protocol: Whole blood was centrifuged at 250 × g for 10 min at 22°C to obtain PRP. To obtain washed platelets (WP), PRP was centrifuged twice (1,000 × g, 10 min, 20°C) in the presence of 1.25 μg/ml prostacyclin. The final platelet pellet was resuspended in modified Tyrode's-HEPES buffer, (20 mM N-2-hydroxyethylpiperazine-N'-2-ethanesulfonic acid, 5 mM glucose, 134 mM NaCl, 0.34 mM Na2HPO4, 2.9 mM KCl, 12 mM NaHCO3, and 1 mM MgCl2, pH 7.3) and rested for 30 min at 30°C before experiments. All protocols using human blood samples were approved by the Research Ethics Committees of the Federal University of […] and the University of Reading. WP (2-3 × 10^8 platelets/ml) were incubated with PESc at the same concentrations and conditions used for platelet aggregation experiments. Then WP were incubated for 10 min with thrombin (0.02 U/ml). FITC-conjugated PAC-1 antibody was added for 10 min in the dark and fluorescence read using a flow cytometer FACS Calibur (BD Biosciences, Franklin Lakes, USA). […] FITC-conjugated fibrinogen and PE/Cy5-conjugated anti-human CD62P were incubated for 30 min, then platelets were read after a 25-fold dilution with Tyrodes-HEPES buffer.

washed platelets [2] = test: Washed platelet aggregation (myricetin, gallic acid); assay type: cell-based, human; details: for inhibition of platelet aggregation (in words): 75-300 μM; for inhibition at 30 µM: Homo sapiens, Platelet
Protocol: Whole blood was centrifuged at 250 × g for 10 min at 22°C to obtain PRP. To obtain washed platelets (WP), PRP was centrifuged twice (1,000 × g, 10 min, 20°C) in the presence of 1.25 μg/ml prostacyclin. The final platelet pellet was resuspended in modified Tyrode's-HEPES buffer, (20 mM N-2-hydroxyethylpiperazine-N'-2-ethanesulfonic acid, 5 mM glucose, 134 mM NaCl, 0.34 mM Na2HPO4, 2.9 mM KCl, 12 mM NaHCO3, and 1 mM MgCl2, pH 7.3) and rested for 30 min at 30°C before experiments. All protocols using human blood samples were approved by the Research Ethics Committees of the Federal University of […] and the University of Reading. PRP and WP aggregation assays were performed in a four-channel aggregometer (Helena Biosciences, […], England). […] Aggregation traces from at least three different donors were recorded for 5 min.

PDI = details: insulin turbidimetry, cited from earlier work; for inhibition of PDI (in words): ref Jasuja et al., 2012
recombinant ERp57 = target: T1, recombinant ERp57 (Homo sapiens, UniProt P30101); test: biochemical
T1 sequence (P30101 25-505): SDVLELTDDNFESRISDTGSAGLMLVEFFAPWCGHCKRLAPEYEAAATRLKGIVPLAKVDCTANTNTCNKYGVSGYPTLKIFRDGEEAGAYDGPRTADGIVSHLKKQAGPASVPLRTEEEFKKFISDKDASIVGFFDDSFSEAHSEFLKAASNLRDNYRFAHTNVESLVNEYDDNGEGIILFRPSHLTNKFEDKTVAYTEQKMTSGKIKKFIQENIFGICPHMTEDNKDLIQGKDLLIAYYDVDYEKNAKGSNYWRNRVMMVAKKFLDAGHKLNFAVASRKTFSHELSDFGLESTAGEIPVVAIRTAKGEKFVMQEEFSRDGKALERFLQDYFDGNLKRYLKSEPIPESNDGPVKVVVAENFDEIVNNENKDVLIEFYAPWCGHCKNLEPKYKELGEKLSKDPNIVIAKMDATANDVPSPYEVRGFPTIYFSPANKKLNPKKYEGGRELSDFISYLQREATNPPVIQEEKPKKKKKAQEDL

recombinant PDI [3] = target: T2, recombinant PDI (Homo sapiens, UniProt P07237); details: Kq=KSV/τ0, τ0 10^-8 s
recombinant ERp72 = target: T3, recombinant ERp72 (Homo sapiens, UniProt P13667); test: Protein fluorescence quenching, ERp72; assay type: binding
T3 sequence (P13667 21-645): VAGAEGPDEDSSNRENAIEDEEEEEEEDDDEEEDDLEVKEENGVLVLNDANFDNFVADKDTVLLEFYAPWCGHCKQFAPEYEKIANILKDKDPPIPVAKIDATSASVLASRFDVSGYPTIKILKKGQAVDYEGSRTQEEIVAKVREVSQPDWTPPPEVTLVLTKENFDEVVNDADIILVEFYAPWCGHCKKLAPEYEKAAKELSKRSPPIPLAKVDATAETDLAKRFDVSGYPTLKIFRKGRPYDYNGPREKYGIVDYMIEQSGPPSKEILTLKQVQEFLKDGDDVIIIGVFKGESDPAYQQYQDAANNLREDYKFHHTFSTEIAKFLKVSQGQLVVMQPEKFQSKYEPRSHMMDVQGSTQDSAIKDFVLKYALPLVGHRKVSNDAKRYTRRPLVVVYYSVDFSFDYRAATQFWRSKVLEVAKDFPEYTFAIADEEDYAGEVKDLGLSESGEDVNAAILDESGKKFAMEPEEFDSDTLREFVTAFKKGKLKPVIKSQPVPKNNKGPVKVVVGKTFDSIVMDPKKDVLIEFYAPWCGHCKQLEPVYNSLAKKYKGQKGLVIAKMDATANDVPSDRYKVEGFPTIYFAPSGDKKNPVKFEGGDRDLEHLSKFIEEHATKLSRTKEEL

recombinant PDI [4] = target: T2, recombinant PDI; test: biochemical
recombinant ERp5 [5] = target: T4, recombinant ERp5 (Homo sapiens, UniProt Q15084); details: ERp5 2 µM, myricetin 0.01–10 µM, Mean ± SEM
T4 sequence (Q15084 20-440): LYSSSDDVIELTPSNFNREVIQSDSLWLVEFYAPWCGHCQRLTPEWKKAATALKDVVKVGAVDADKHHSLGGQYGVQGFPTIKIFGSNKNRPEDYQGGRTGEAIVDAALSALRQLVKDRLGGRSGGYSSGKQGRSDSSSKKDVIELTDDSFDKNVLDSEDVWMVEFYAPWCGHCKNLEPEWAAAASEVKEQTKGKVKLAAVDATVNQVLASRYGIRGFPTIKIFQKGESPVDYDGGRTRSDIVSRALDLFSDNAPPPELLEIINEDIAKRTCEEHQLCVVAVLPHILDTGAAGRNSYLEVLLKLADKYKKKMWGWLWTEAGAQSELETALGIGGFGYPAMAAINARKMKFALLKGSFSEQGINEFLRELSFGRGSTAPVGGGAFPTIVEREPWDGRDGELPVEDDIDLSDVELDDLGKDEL

recombinant ERp5 [6] = target: T4, recombinant ERp5; test: biochemical
[7] = set-up: method as in Dang et al., 2014; details: rats, single oral dose of 100 mg/kg; ref Dang et al., 2014; cited from earlier work
[8] = system: whole blood on collagen-coated Vena8 bio-chips; test: Thrombus formation under flow; assay type: cell-based, human; details: 30 µM, shear rate 45 dyn/cm^2, 10 min
Protocol: Fluorescence intensity was calculated using NIS Elements Software (Nikon, Tokyo, Japan).

recombinant ERp5 [9] = target: T4, recombinant ERp5; test: Reductase activity (Di-E-GssG), ERp5; assay type: biochemical; details: ERp5 2 µM, myricetin 0.01–10 µM, Di-E-GssG probe
washed platelets [10] = test: Platelet spreading on collagen or fibrinogen; assay type: cell-based, human
Protocol: Non-adhered platelets were removed and the coverslip washed three times with PBS. Adhered platelets were fixed using 0.2% paraformaldehyde for 10 min. This solution was then removed and coverslips washed three times with PBS before the addition of 0.1% (v/v) Triton-X to permeabilize the cells. […] Coverslips were mounted onto microscope glass slides and imaged using a 100× oil immersion lens on a Nikon A1-R Confocal microscope.

recombinant PDI [11] = target: T2, recombinant PDI; test: Reductase activity (Di-E-GssG), PDI; assay type: biochemical; details: PDI 2 µM, myricetin 0.01–10 µM, Di-E-GssG probe
VASP (Ser239) = VASP (Ser239) phosphorylation immunoblotting; assay type: cell-based, human; details: resting washed platelets, 7.5, 15 and 30 μM, 10 min
Protocol: After protein separation, semi-dry transfer was performed at 15V for 2 h using a BioRad Trans-blot semidry blotter. Membranes were blocked with 5% bovine serum albumin (BSA) for 1 h and incubated with primary antibodies against VASP ([…]) or GAPDH at 1:1,000 v/v dilution overnight. After washing the primary antibody off, […] secondary antibody was incubated for 1 h at room temperature at 1:4,000 v/v dilution. Membranes were visualized using a Typhoon imaging system (GE Healthcare, Hatfield, UK).

T2 sequence (P07237 18-508): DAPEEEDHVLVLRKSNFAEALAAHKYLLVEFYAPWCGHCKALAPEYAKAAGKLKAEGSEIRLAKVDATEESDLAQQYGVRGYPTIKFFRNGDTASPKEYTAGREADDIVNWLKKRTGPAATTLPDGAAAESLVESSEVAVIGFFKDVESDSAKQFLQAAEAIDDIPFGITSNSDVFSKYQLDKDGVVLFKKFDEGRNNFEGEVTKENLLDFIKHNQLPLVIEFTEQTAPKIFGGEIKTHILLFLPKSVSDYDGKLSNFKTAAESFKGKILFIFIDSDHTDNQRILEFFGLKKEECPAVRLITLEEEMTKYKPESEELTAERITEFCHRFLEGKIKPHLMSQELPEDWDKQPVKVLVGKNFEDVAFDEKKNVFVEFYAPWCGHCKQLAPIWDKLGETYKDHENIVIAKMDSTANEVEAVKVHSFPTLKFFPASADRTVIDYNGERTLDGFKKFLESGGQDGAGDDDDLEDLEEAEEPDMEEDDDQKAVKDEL

What does the source list for `O=C(O)c1cc(O)c(O)c(O)c1` [Gallic acid, gallic acid]?
fibrinogen binding (in words) (washed platelets [1]; CRP-activated washed platelets, 150 μM): only able to reduce fibrinogen binding when incubated at 150 μM; inhibition of platelet aggregation (in words) (washed platelets [2]; TRAP-6-induced): unable to inhibit platelet aggregation, except at the higher concentration used (300 μM); inhibition of platelet aggregation (in words) (washed platelets [2]; collagen-induced): unable to inhibit platelet aggregation

For `O=c1c(O)c(-c2ccc(O)c(O)c2)oc2cc(O)cc(O)c12` [Quercetin, quercetin], which “inhibition of PDI (in words)” value (PDI) is on record?
The value was “weak inhibitor of PDI”.

With `C[C@@H]1O[C@@H](OC[C@H]2O[C@@H](Oc3c(-c4ccc(O)c(O)c4)oc4cc(O)cc(O)c4c3=O)[C@H](O)[C@@H](O)[C@@H]2O)[C@H](O)[C@H](O)[C@H]1O` [rutin] as the compound, how does the “inhibition of PDI (in words)” value (PDI) read?
The value was “potent inhibitors of PDI reductase activity”.

With `O=c1c(O[C@@H]2O[C@H](CO)[C@@H](O)[C@H](O)[C@H]2O)c(-c2ccc(O)c(O)c2)oc2cc(O)cc(O)c12` [isoquercetin] as the compound, how does the “inhibition of PDI reductase activity (in words)” value (PDI; ref Stopa et al., 2017) read?
Its value is “potent inhibitors of PDI reductase activity”.

Which results are given for `O=c1c(O)c(-c2cc(O)c(O)c(O)c2)oc2cc(O)cc(O)c12` [Myricetin]?
Kd (recombinant ERp57): 1.83 µM; Kq (quenching rate constant) (recombinant PDI [3]): 2.12e+12 M⁻¹ s⁻¹; K SV (Stern-Volmer constant) (recombinant ERp72; ERp72 2 µM, myricetin 0.01–10 µM, Mean ± SEM): 27,515 ± 5,675 M^-1; Kq (quenching rate constant) (recombinant ERp72; ERp72, Kq=KSV/τ0, τ0 10^-8 s): 2.75e+12 M⁻¹ s⁻¹; K b (binding constant) (recombinant ERp72; ERp72, determined for highest concentration tested): 394000 M⁻¹; Kd (recombinant ERp72; read-out: K d (dissociation constant)): 2.53 µM; Kd (recombinant PDI [4]): 4.26 µM; fibrinogen binding (in words) (washed platelets [1]; CRP-activated washed platelets, 15 μM): abolish; fibrinogen binding (in words) (washed platelets [1]; TRAP-6-activated washed platelets): still inhibited fibrinogen binding; K SV (Stern-Volmer constant) (recombinant ERp5 [5]): 48,750 ± 9,554 M^-1; inhibition at 30 µM (washed platelets [2]; TRAP-6-induced): ~60%; inhibition at 30 µM (washed platelets [2]; collagen-induced): ~80%; Kd (recombinant ERp5 [6]): 1.74 µM; peak plasma concentration [7]: 10 µM; thrombus formation (fluorescence intensity) (in words) [8]: decreased thrombus formation; inhibition of reductase activity (in words) (recombinant ERp5 [9]): inhibit both PDI and ERp5; inhibition at 30 µM (washed platelets [10]; Homo sapiens, Platelet, collagen-coated coverslips, 30 μM): ~25%; platelet spreading (in words) (washed platelets [10]; fibrinogen-coated coverslips, 7.5-30 μM): no effect; inhibition of reductase activity (in words) (recombinant PDI [11]): inhibit both PDI and ERp5, being more potent against PDI; VASP phosphorylation (in words) (VASP (Ser239)): did not induce VASP phosphorylation

Reference: paper PMC7011086 (Frontiers in Pharmacology, 2020)
